Data reported in patent publication US7776910B2, “Arylsulfonyl pyrrolidines as 5-HT6 inhibitors” (Roche Palo Alto LLC, priority 2006, dated 2010).
Structures can show the parent of a compound that is named as a salt.

What was measured:
[1] = biological target: T1, recombinant human 5-HT6 receptor (Homo sapiens, UniProt P50406); experiment: Radioligand binding studies, 5-HT6 ligand affinity ([3H]LSD competition); conditions: [3H]LSD displacement, membranes of HEK293 cells expressing the receptor, pH 7.4, 37° C.; read-out: pKi for the 5-HT6 receptor (converted)
T1 construct: expressed in transfected cells
T1 sequence (P50406 whole entry): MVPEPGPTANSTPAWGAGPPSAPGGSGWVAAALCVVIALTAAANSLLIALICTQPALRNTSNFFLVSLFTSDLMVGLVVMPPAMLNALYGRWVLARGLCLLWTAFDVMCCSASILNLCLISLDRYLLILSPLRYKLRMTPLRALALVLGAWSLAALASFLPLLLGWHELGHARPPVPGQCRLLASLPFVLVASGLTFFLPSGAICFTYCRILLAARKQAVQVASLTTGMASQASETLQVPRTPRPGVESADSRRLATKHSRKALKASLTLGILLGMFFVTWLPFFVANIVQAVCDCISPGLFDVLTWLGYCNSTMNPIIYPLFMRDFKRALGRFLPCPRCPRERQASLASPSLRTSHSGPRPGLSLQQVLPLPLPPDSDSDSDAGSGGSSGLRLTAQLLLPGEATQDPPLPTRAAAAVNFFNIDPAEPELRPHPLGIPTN
Procedure: (§1) This example illustrates in vitro radioligand binding studies of compound of formula I.
(§2) The binding activity of compounds of this invention in vitro was determined as follows. Duplicate determinations of 5-HT6 ligand affinity were made by competing for binding of [^3H]LSD in cell membranes derived from HEK293 cells stably expressing recombinant human 5-HT6 receptor. Duplicate determinations of 5-HT2A ligand affinity were made by competing for binding of [^3H]Ketanserin (3-(2-(4-(4-fluorobenzoyl)piperidinol)ethyl)-2,4(1H,3H)-quinazolinedione) in cell membranes derived from CHO-K1 cells stably expressing recombinant human 5-HT2A receptor. Membranes were prepared from HEK 293 cell lines by the method described by Monsma et al., Molecular Pharmacology, Vol. 43 pp. 320-327 (1993), and from CHO-K1 cell lines as described by Bonhaus et al., Br J. Pharmacol. June; 115(4):622-8 (1995).
(§3) For estimation of affinity at the 5-HT6 receptor, all determinations were made in assay buffer containing 50 mM Tris-HCl, 10 mM MgSO4, 0.5 mM EDTA, 1 mM ascorbic acid, pH 7.4 at 37° C., in a 250 microliter reaction volume. […]
(§4) Assay tubes containing [^3H] […] LSD or [^3H]Ketanserin were determined as radioactive counts per minute using Packard TopCount.
(§5) Displacement of [^3H]LSD or [^3H]Ketanserin from the binding sites was quantified by fitting concentration-binding data to a 4-parameter logistic equation: […]

[2] = biological target: T2, recombinant human 5-HT2A receptor (Homo sapiens, UniProt P28223); experiment: Radioligand binding studies, 5-HT2A ligand affinity ([3H]Ketanserin competition); conditions: [3H]Ketanserin displacement, membranes of CHO-K1 cells expressing the receptor, pH 7.4, 32° C.; read-out: pKi for the 5-HT2A receptor (converted)
T2 construct: expressed in transfected cells
T2 sequence (P28223 whole entry): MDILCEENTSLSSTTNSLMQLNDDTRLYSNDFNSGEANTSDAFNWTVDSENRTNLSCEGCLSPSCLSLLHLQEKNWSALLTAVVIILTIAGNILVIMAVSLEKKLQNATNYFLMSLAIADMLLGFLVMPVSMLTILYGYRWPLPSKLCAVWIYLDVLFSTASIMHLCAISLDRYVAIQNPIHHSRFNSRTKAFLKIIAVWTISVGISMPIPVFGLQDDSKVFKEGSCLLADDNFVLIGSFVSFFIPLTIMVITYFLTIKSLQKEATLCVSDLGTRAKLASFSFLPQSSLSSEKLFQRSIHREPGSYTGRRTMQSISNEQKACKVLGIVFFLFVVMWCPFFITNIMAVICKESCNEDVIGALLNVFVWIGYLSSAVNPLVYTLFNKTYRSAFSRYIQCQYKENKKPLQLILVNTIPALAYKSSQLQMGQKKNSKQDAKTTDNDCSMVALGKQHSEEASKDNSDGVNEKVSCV
Procedure: as §1, §2, §3, §4, §5

Structure (SMILES)	melting point [°C]	further results
CCS(=O)(=O)c1cccc(S(=O)(=O)c2ccc(C3CCNC3)c(O)c2)c1 (centres unmarked) (as salt: HCl) [Compound 20, 5-(3-Ethanesulfonyl-benzenesulfonyl)-2-pyrrolidin-3-yl-phenol]	124.5 to 126.7	–
Cc1cc(S(=O)(=O)c2ccc(O)c(Cl)c2)ccc1C1CCNC1 (centres unmarked) (as salt: HCl) [Compound 32, 2-Chloro-4-(3-methyl-4-pyrrolidin-3-yl-benzenesulfonyl)-phenol]	110 to 112.9	–
O=S(=O)(c1cccc(F)c1)c1ccc([C@@H]2CCNC2)c(O)c1 (as salt: HCl) [Compound 35, 5-(3-Fluoro-benzenesulfonyl)-2-(S)-pyrrolidin-3-yl-phenol]	239 to 241	–
Cc1cc(S(=O)(=O)c2ccc(O)cc2)ccc1C1CCN(C)C1 (centres unmarked) (as salt: HCl) [Compound 51, 4-[3-Methyl-4-(1-methyl-pyrrolidin-3-yl)-benzenesulfonyl]-phenol]	186 to 187.5	–
CN1CC[C@@H](c2ccc(S(=O)(=O)c3ccc(O)cc3)cc2F)C1 [4-[3-Fluoro-4-(1-methyl-(S)-pyrrolidin-3-yl)-benzenesulfonyl]-phenol]	–	Ki [1]: ~0.1 nM
CCSc1cccc(S(=O)(=O)c2ccc(C3CCNC3)c(O)c2)c1 (centres unmarked) [5-(3-Ethylsulfanyl-benzenesulfonyl)-2-pyrrolidin-3-yl-phenol]	–	Ki [2]: ~0.891 nM
Cc1cc(S(=O)(=O)c2ccc(O)c(C(C)C)c2)ccc1C1CCNC1 (centres unmarked) [Compound 85, 2-Isopropyl-4-(3-methyl-4-pyrrolidin-3-yl-benzenesulfonyl)-phenol]	125 to 128	–
Cc1cc(S(=O)(=O)c2ccccc2)ccc1[C@@H]1CCN(S(C)(=O)=O)C1 [Compound 115, 3-(4-Benzenesulfonyl-2-methyl-phenyl)-1-methanesulfonyl-(S)-pyrrolidine]	56 to 58	–
